Assays:
Type in all cases: functional
UO-31 = assay: Growth inhibition of human UO31 cells assessed as cell growth at 5X10'-6 M after 48 hrs by sulforhodamine B assay; settings: UO-31, 48 h, read-out: Activity
OVCAR-4 = assay: Growth inhibition of human OVCAR4 cells assessed as cell growth at 5X10'-6 M after 48 hrs by sulforhodamine B assay; settings: OVCAR-4, 48 h, read-out: Activity
NCI-H23 = assay: Growth inhibition of human NCI-H23 cells assessed as cell growth at 5X10'-6 M after 48 hrs by sulforhodamine B assay; settings: NCI-H23, 48 h, read-out: Activity

| Compound | growth at 5 µM (UO-31) | growth at 5 µM (OVCAR-4) | growth at 5 µM (NCI-H23) |
| --- | --- | --- | --- |
| COc1cc(-c2nn(-c3cccc(NC(=O)Nc4cccc(C(F)(F)F)c4)c3)cc2-c2ccncc2)ccc1Cl | -15% | 6% | -18% |
| COc1cc(-c2nn(-c3cccc(NC(=O)c4cccc(C(F)(F)F)c4)c3)cc2-c2ccncc2)ccc1Cl | 20% | 34% | 13% |
